Experiments:
PI3K-p110α = PI3K-p110α (Homo sapiens, UniProt P42336); test: Biochemical data, PI3K binding potency, PI3K-p110α
Source text: (§1) The following biochemical data have been generated for the exemplified compounds, showing PI3K binding potency.

PI3K-p110β = PI3K-p110β (Homo sapiens, UniProt P42338); test: Biochemical data, PI3K binding potency, PI3K-p110β
Source text: as §1

PI3K-p110δ = PI3K-p110δ (Homo sapiens, UniProt O00329); test: Biochemical data, PI3K binding potency, PI3K-p110δ
PI3K-p110δ, sequence (O00329 whole entry): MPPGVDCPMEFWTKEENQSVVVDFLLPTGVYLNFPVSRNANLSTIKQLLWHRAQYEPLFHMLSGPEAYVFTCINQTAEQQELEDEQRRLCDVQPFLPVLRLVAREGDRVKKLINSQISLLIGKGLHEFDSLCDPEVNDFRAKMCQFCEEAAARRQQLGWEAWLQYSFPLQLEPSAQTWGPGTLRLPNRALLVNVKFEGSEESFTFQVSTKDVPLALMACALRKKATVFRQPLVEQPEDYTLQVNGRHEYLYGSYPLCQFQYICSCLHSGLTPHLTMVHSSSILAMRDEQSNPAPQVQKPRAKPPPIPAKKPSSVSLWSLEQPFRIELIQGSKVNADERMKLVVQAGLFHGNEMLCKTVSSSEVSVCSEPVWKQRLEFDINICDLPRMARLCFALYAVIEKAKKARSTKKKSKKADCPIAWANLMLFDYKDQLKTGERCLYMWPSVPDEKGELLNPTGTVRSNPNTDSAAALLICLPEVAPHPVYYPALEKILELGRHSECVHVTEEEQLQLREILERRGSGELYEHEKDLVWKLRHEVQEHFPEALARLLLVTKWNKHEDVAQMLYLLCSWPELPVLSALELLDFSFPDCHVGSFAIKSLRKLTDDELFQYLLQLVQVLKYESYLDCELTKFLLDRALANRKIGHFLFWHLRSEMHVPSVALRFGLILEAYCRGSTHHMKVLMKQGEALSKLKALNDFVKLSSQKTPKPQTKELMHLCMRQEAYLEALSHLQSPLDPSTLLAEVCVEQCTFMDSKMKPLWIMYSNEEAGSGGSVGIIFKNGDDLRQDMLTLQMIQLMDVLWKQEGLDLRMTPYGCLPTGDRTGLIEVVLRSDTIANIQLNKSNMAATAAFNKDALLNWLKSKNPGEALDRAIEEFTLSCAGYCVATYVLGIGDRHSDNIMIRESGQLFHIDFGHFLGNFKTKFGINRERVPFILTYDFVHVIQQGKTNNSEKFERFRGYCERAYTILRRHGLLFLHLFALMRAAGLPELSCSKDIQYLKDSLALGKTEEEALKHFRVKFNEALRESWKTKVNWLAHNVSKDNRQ
PI3K-p110δ, sequence (P27986 whole entry partner): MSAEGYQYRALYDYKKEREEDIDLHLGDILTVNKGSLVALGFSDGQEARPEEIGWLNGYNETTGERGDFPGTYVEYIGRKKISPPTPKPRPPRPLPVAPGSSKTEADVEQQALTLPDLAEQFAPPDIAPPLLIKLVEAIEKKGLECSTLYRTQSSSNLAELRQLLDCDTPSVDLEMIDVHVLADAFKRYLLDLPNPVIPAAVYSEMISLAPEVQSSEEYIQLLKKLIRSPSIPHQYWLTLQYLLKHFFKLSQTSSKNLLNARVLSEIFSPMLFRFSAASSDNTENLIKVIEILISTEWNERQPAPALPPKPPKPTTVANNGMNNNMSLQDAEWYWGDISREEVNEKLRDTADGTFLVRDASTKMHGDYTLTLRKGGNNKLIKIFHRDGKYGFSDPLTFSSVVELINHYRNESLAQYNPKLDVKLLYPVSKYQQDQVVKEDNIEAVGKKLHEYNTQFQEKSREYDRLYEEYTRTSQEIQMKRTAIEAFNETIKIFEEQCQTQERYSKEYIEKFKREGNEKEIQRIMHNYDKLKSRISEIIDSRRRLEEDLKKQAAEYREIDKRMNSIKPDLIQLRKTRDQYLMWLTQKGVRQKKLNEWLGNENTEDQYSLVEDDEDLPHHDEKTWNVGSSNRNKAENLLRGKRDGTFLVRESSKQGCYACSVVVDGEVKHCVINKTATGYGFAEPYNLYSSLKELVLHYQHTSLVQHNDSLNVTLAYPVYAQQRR
Source text: as §1

PI3K-p110γ = PI3K-p110γ (Homo sapiens, UniProt P48736); test: Biochemical data, PI3K binding potency, PI3K-p110γ
PI3K-p110γ, sequence (P48736 whole entry): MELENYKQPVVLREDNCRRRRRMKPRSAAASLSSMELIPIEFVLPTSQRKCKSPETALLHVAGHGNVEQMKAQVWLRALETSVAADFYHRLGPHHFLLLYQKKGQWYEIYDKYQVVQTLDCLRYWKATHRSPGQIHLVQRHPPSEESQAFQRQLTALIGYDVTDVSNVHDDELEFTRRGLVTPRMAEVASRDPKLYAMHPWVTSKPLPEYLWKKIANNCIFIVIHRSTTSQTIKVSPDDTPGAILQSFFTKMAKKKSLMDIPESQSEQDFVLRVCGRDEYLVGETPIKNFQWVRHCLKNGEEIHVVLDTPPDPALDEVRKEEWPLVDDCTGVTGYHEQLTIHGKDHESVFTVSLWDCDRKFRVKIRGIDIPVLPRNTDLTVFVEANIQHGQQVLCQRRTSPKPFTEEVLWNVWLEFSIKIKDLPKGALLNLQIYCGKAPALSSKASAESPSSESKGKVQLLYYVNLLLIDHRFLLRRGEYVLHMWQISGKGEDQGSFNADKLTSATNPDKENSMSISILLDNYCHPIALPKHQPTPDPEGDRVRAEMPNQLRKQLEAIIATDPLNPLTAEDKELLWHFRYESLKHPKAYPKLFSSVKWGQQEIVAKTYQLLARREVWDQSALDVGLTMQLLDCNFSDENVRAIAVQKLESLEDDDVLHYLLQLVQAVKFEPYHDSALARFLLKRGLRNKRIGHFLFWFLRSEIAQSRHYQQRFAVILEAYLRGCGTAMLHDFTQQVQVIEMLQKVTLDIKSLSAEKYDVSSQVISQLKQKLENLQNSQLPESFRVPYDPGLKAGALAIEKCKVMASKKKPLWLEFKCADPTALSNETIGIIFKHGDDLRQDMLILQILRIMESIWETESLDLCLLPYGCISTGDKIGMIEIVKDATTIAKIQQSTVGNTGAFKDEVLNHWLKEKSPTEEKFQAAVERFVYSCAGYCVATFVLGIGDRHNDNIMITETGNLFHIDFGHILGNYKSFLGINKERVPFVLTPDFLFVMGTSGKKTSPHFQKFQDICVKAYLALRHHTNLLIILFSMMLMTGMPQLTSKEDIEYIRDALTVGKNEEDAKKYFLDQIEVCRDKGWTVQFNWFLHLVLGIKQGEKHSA
Source text: as §1

PI3K-p110α, sequence (P42336 whole entry): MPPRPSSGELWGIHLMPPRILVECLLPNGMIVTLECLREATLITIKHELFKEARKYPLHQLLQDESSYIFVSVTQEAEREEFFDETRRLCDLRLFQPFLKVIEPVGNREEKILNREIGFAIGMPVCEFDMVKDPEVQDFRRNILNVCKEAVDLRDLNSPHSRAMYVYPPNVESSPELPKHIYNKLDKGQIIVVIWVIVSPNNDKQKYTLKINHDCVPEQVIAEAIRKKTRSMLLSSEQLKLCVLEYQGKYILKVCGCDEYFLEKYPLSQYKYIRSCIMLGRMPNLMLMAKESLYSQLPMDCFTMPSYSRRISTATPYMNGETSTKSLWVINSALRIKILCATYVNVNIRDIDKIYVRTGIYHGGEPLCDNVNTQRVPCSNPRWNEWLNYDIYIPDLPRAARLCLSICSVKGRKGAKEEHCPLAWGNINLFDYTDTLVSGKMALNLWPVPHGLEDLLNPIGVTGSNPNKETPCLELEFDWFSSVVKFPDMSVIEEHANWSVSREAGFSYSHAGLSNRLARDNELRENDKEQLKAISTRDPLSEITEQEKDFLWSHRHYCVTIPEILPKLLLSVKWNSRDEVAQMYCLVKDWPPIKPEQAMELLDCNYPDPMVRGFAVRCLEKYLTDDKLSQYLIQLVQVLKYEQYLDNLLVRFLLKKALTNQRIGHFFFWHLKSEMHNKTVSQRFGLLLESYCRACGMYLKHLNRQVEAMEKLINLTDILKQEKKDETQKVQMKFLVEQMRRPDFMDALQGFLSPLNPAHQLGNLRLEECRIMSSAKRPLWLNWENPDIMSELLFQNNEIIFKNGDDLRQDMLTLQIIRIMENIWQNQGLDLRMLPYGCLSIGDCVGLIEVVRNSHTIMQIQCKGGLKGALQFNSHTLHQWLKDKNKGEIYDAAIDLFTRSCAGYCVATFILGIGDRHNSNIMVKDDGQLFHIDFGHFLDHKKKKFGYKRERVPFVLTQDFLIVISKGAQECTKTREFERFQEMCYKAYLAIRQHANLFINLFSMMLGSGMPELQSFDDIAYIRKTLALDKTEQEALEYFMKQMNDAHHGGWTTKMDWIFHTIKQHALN
PI3K-p110α, sequence (P27986 whole entry partner): as the sequence (P27986 whole entry partner) above
PI3K-p110β, sequence (P42338 whole entry): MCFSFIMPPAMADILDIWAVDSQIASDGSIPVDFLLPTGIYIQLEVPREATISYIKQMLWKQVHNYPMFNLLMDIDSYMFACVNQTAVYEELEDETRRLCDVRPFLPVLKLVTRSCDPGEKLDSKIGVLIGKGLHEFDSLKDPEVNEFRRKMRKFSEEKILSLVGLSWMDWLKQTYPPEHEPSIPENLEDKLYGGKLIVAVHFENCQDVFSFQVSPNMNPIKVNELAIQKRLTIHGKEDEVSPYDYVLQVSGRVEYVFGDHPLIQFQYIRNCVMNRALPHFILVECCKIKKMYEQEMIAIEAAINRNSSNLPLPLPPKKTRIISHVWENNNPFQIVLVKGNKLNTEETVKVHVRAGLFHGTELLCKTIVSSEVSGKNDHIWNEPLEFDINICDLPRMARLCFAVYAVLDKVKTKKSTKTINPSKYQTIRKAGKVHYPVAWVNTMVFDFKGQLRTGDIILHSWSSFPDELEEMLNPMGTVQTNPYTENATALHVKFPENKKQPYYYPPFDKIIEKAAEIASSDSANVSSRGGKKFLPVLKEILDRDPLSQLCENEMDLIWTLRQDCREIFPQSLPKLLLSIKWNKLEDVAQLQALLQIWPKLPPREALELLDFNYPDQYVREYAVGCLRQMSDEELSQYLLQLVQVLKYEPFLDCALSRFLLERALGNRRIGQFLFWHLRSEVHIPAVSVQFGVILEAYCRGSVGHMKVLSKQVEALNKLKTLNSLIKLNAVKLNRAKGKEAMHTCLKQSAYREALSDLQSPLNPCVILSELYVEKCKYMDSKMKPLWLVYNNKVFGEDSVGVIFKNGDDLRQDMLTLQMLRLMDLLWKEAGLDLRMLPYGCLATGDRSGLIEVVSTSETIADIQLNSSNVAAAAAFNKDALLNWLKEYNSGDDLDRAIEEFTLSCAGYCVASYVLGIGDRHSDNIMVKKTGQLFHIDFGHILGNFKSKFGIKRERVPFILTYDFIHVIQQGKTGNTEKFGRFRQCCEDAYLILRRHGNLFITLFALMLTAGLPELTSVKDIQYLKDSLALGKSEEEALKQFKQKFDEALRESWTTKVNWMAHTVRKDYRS
PI3K-p110β, sequence (P27986 whole entry partner): as the sequence (P27986 whole entry partner) above

| SMILES | IC50 (PI3K-p110α) | IC50 (PI3K-p110β) | IC50 (PI3K-p110δ) | IC50 (PI3K-p110γ) |
| --- | --- | --- | --- | --- |
| CN(C)CCCC(=O)Nc1cc(-c2cccc3[nH]ccc23)nc(N2CCOCC2)c1 [B, 4-Dimethylamino-N-[2-(1H-indol-4-yl)-6-morpholin-4-yl-pyridin-4-yl]-butyramide] | ≥ 10000 nM | 247 nM | 177 nM | ≥ 10000 nM |
| O=C(CCCN1CCCC1)Nc1cc(-c2cccc3[nH]ccc23)nc(N2CCOCC2)c1 [C, N-[2-(1H-Indol-4-yl)-6-morpholin-4-yl-pyridin-4-yl]-4-pyrrolidin-1-yl-butyramide] |  |  | 953 nM |  |

From patent US10035785B2, “Phosphoinositide 3-kinase inhibitors” (Karus Therapeutics Limited, priority 2012, dated 2018)
